Assay results reported in PubChem BioAssay (NCI).
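GI50 is the concentration that inhibits growth by half. TGI: total growth inhibition.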

Assays:
Test in all cases: DTP human tumour cell line panel, 384-well format
SNB-19 CNS = tested on: SNB-19 CNS
EKVX NSCLC = tested on: EKVX NSCLC
SK-MEL-2 melanoma = tested on: SK-MEL-2 melanoma
MOLT-4 leukemia = tested on: MOLT-4 leukemia
OVCAR-5 ovarian = tested on: OVCAR-5 ovarian
BT-549 breast = tested on: BT-549 breast
SR leukemia = tested on: SR leukemia
DU-145 prostate = tested on: DU-145 prostate
HS 578T breast = tested on: HS 578T breast
786-0 renal = tested on: 786-0 renal
UO-31 renal = tested on: UO-31 renal
ACHN renal = tested on: ACHN renal
HOP-92 NSCLC = tested on: HOP-92 NSCLC
SN12C renal = tested on: SN12C renal
CAKI-1 renal = tested on: CAKI-1 renal
NCI-H226 lung = tested on: NCI-H226 lung
TK-10 renal = tested on: TK-10 renal
OVCAR-4 ovarian = tested on: OVCAR-4 ovarian
MDA-MB-435 melanoma = tested on: MDA-MB-435 melanoma
T-47D breast = tested on: T-47D breast
SK-MEL-28 melanoma = tested on: SK-MEL-28 melanoma
OVCAR-3 ovarian = tested on: OVCAR-3 ovarian
SW-620 colon = tested on: SW-620 colon
HCT-15 colon = tested on: HCT-15 colon
HL-60(TB) leukemia = tested on: HL-60(TB) leukemia
NCI-H460 NSCLC = tested on: NCI-H460 NSCLC
MDA-MB-231 breast = tested on: MDA-MB-231 breast
HOP-62 NSCLC = tested on: HOP-62 NSCLC
COLO 205 colon = tested on: COLO 205 colon
HCC-2998 colon = tested on: HCC-2998 colon
SNB-75 CNS = tested on: SNB-75 CNS
K-562 leukemia = tested on: K-562 leukemia
NCI-H23 lung = tested on: NCI-H23 lung
RPMI-8226 leukemia = tested on: RPMI-8226 leukemia
SF-539 CNS = tested on: SF-539 CNS
PC-3 prostate = tested on: PC-3 prostate
SF-295 CNS = tested on: SF-295 CNS
IGROV1 ovarian = tested on: IGROV1 ovarian
NCI-H522 lung = tested on: NCI-H522 lung
MCF7 breast = tested on: MCF7 breast
NCI/ADR-RES ovarian = tested on: NCI/ADR-RES ovarian
RXF 393 renal = tested on: RXF 393 renal
M14 melanoma = tested on: M14 melanoma
SK-MEL-5 melanoma = tested on: SK-MEL-5 melanoma
MALME-3M melanoma = tested on: MALME-3M melanoma
KM12 colon = tested on: KM12 colon
HT29 colon = tested on: HT29 colon
LOX IMVI melanoma = tested on: LOX IMVI melanoma
UACC-257 melanoma = tested on: UACC-257 melanoma
SF-268 CNS = tested on: SF-268 CNS
A498 renal = tested on: A498 renal
A549 NSCLC = tested on: A549 NSCLC
UACC-62 melanoma = tested on: UACC-62 melanoma
NCI-H322M lung = tested on: NCI-H322M lung
MDA-MB-468 breast = tested on: MDA-MB-468 breast
SK-OV-3 ovarian = tested on: SK-OV-3 ovarian
HCT-116 colon = tested on: HCT-116 colon
U251 glioblastoma = tested on: U251 glioblastoma

O=C(c1ccc(/C=C/c2n[nH]c3ccccc23)cc1)N1CCNCC1
GI50 (SNB-19 CNS): 12.1 µM
TGI (SNB-19 CNS): 27.7 µM
GI50 (EKVX NSCLC): 3.23 µM
TGI (EKVX NSCLC): 14.7 µM
GI50 (SK-MEL-2 melanoma): 14.5 µM
TGI (SK-MEL-2 melanoma): 27.7 µM
GI50 (MOLT-4 leukemia): 0.252 µM
TGI (MOLT-4 leukemia): 1.27 µM
GI50 (OVCAR-5 ovarian): 3.48 µM
TGI (OVCAR-5 ovarian): > 100 µM
GI50 (BT-549 breast): 0.597 µM
TGI (BT-549 breast): 2.29 µM
GI50 (SR leukemia): 0.18 µM
TGI (SR leukemia): 0.32 µM
GI50 (DU-145 prostate): 5.22 µM
TGI (DU-145 prostate): 20.7 µM
GI50 (HS 578T breast): 2.47 µM
TGI (HS 578T breast): 7.17 µM
GI50 ([…]-0 renal): 10.7 µM
TGI (786-0 renal): 22.7 µM
GI50 (UO-31 renal): 2.69 µM
TGI (UO-31 renal): 17.2 µM
GI50 (ACHN renal): 4.29 µM
TGI (ACHN renal): 18.3 µM
GI50 (HOP-92 NSCLC): 2.32 µM
TGI (HOP-92 NSCLC): 11 µM
GI50 (SN12C renal): 1.88 µM
TGI (SN12C renal): 10.6 µM
GI50 (CAKI-1 renal): 3.37 µM
TGI (CAKI-1 renal): 16.4 µM
GI50 (NCI-H226 lung): 1.32 µM
TGI (NCI-H226 lung): 4.89 µM
GI50 (TK-10 renal): 4.91 µM
TGI (TK-10 renal): 22.7 µM
GI50 (OVCAR-4 ovarian): 21.7 µM
TGI (OVCAR-4 ovarian): 37.5 µM
GI50 (MDA-MB-435 melanoma): 2.01 µM
TGI (MDA-MB-435 melanoma): 13.3 µM
GI50 (T-47D breast): 17.7 µM
TGI (T-47D breast): 31.9 µM
GI50 (SK-MEL-28 melanoma): 11.7 µM
TGI (SK-MEL-28 melanoma): 24 µM
GI50 (OVCAR-3 ovarian): 11.6 µM
TGI (OVCAR-3 ovarian): 24.5 µM
GI50 (SW-620 colon): 3.1 µM
TGI (SW-620 colon): 14.1 µM
GI50 (HCT-15 colon): 3.41 µM
TGI (HCT-15 colon): 18.9 µM
GI50 (HL-60(TB) leukemia): 0.416 µM
TGI (HL-60(TB) leukemia): 15 µM
GI50 (NCI-H460 NSCLC): 0.543 µM
TGI (NCI-H460 NSCLC): 10.9 µM
GI50 (MDA-MB-231 breast): 3.41 µM
TGI (MDA-MB-231 breast): 17.9 µM
GI50 (HOP-62 NSCLC): 2.32 µM
TGI (HOP-62 NSCLC): 16.5 µM
GI50 (COLO 205 colon): 0.635 µM
TGI (COLO 205 colon): 3.89 µM
GI50 (HCC-2998 colon): 11 µM
TGI (HCC-2998 colon): 27.4 µM
GI50 (SNB-75 CNS): 3.4 µM
TGI (SNB-75 CNS): 9.95 µM
GI50 (K-562 leukemia): 0.214 µM
TGI (K-562 leukemia): 1.08 µM
GI50 (NCI-H23 lung): 2.69 µM
TGI (NCI-H23 lung): 13.6 µM
GI50 (RPMI-8226 leukemia): 1.17 µM
TGI (RPMI-8226 leukemia): 11.1 µM
GI50 (SF-539 CNS): 1.53 µM
TGI (SF-539 CNS): 5.75 µM
GI50 (PC-3 prostate): 5.28 µM
TGI (PC-3 prostate): 21.2 µM
GI50 (SF-295 CNS): 2.12 µM
TGI (SF-295 CNS): 17.3 µM
GI50 (IGROV1 ovarian): 4.66 µM
TGI (IGROV1 ovarian): 18.2 µM
GI50 (NCI-H522 lung): 0.529 µM
TGI (NCI-H522 lung): 5.51 µM
GI50 (MCF7 breast): 2.9 µM
TGI (MCF7 breast): 16.3 µM
GI50 (NCI/ADR-RES ovarian): 13.8 µM
TGI (NCI/ADR-RES ovarian): 26.9 µM
GI50 (RXF 393 renal): 6.96 µM
TGI (RXF 393 renal): 19.7 µM
GI50 (M14 melanoma): 4.3 µM
TGI (M14 melanoma): 17 µM
GI50 (SK-MEL-5 melanoma): 5.38 µM
TGI (SK-MEL-5 melanoma): 19.4 µM
GI50 (MALME-3M melanoma): 2.7 µM
TGI (MALME-3M melanoma): 10.8 µM
GI50 (KM12 colon): 0.118 µM
TGI (KM12 colon): 10.8 µM
GI50 (HT29 colon): 3.1 µM
TGI (HT29 colon): 14.6 µM
GI50 (LOX IMVI melanoma): 2.99 µM
TGI (LOX IMVI melanoma): 10.8 µM
GI50 (UACC-257 melanoma): 5.94 µM
TGI (UACC-257 melanoma): 17.8 µM
GI50 (SF-268 CNS): 4.18 µM
TGI (SF-268 CNS): 19.5 µM
GI50 (A498 renal): 13.2 µM
TGI (A498 renal): 26 µM
GI50 (A549 NSCLC): 1.96 µM
TGI (A549 NSCLC): 19.9 µM
GI50 (UACC-62 melanoma): 7.66 µM
TGI (UACC-62 melanoma): 20.8 µM
GI50 (NCI-H322M lung): 11.7 µM
TGI (NCI-H322M lung): 27.8 µM
GI50 (MDA-MB-468 breast): 1.07 µM
TGI (MDA-MB-468 breast): 16.6 µM
GI50 (SK-OV-3 ovarian): 7.59 µM
TGI (SK-OV-3 ovarian): 21 µM
GI50 (HCT-116 colon): 1.77 µM
TGI (HCT-116 colon): 18.6 µM
GI50 (U251 glioblastoma): 11.2 µM
TGI (U251 glioblastoma): 23.7 µM
